According to patent US12528816B2, “Substituted imidazo [1,2-b] pyridazines and [1, 2, 4] triazolo [ 4,3-b] pyridazines as camkii inhibitors” (Cardurion Pharmaceuticals, INC., priority 2020, dated 2026):

Target: T1, human CaMKIIδ (Homo sapiens, UniProt Q13557)
T1 construct: Full-length, glutathione-S-transferase(GST)-tagged, human CaMKIIδ was purchased from Carna Biosciences; purchased Carna Biosciences (CaMKIIδ); Wako Pure Chemical Industries (calmodulin) 02-111
Test: Evaluation of in vitro CaMKII inhibitory activity (binding assay, TR-FRET)
Settings: human CaMKIIδ, TR-FRET binding assay; class symbols A/B/C; read-out: Act (CaMKII inhibitory activity, binding assay)
Experimental: Evaluation of In Vitro CaMKII Inhibitory Activity (Binding Assay)
In vitro CaMKIIδ inhibitory activity was evaluated by a binding assay.
Full-length bovine calmodulin was purchased from Wako Pure Chemical Industries (Osaka, Japan). Terbium-labeled anti-GST anti body (Tb-anti-GST Ab) was purchased from Life Technologies (Carlsbad, CA, USA). Fluorescent probe ligand, 5,5-difluoro-7,9-dimethyl-3-(3-oxo-3-((3-((4-(3-(piperazin-1-yl)phenyl)pyrimidin-2-yl)amino)phenyl)amino) propyl)-5H-dipyrrolo[1,2-c:2′,1′-f]
Time-resolved fluorescence resonance energy transfer (TR-FRET) assay
The fluorescent probe ligand, 5,5-difluoro-7,9-dimethyl-3-(3-oxo-3-((3-((4-(3-(piperazin-1-yl)phenyl)pyrimidin-2-yl)amino)phenyl)amino) propyl)-5H-dipyrrolo[1,2-c:2′,1′-f] […] After shaded incubation of the protein-probe mixture on ice for 30 min, the premix was dispensed in the assay plate including test inhibitors with 4 fold dilution series of eight concentrations. After 1 hr incubation at room temperature, TR-FRET signals were measured in duplicate using an EnVision microplate reader (Perkin Elmer, Waltham, MA, USA).
The half maximal inhibitory concentration (IC50) of test compounds was calculated by fitting the data with the logistic equation using XLfit (IDBS, Guildford, UK).

C[C@@H](Cn1cnnn1)Oc1cc(-c2ccc3ncn(-c4ncn(C)c4C#N)c3n2)ccc1F [Example 173, 4-[5-(4-fluoro-3-{[(2S)-1-(1H-tetrazol-1-yl)propan-2-yl]oxy}phenyl)-3H-imidazo[4,5-b]pyridin-3-yl]-1-methyl-1H-imidazole-5-carbonitrile] and C[C@@H](Cn1cnnn1)Oc1cc(-c2ccc3ncn(-c4ccccn4)c3n2)ccc1F [compound 153, 2-[5-(4-fluoro-3-{[(2S)-1-(1H-tetrazol-1-yl)propan-2-yl]oxy}phenyl)-3H-imidazo[4,5-b]pyridin-3-yl]pyridine] cannot be ordered by IC50: < 0.01 µM for the first, < 0.01 µM for the second.

C[C@@H](Cn1cnnn1)Oc1cc(-c2ccc3ncc(-c4cccc(OCC(=O)O)c4C#N)n3n2)ccc1F [compound 216] and C[C@@H](Cn1cnnn1)Oc1cc(-c2ccc3ncc(-c4cccc(OCC(F)(F)F)c4C#N)n3n2)ccc1F [compound 214] cannot be ordered by IC50: < 0.01 µM for the first, < 0.01 µM for the second.

C[C@@H](Cn1cnnn1)Oc1cc(-c2ccn3ncc(-c4cccc(F)c4)c3n2)ccc1F [compound 50] and Cc1c(-c2cnn3ccc(-c4ccc(F)c(O[C@@H](C)Cn5cnnn5)c4)nc23)cnn1C [compound 143] cannot be ordered by IC50: < 0.01 µM for the first, < 0.01 µM for the second.

C[C@@H](Cn1cnnn1)Oc1cc(-c2ccc3ncc(-c4cccc(OCC5CCNC5=O)c4C#N)n3n2)ccc1F (stereo partly shown) [compound 198] and C[C@@H](Cn1cnnn1)Oc1cc(-c2ccc3ncc(-c4cccc(OC5CCNC5=O)c4C#N)n3n2)ccc1F (stereo partly shown) [compound 178] cannot be ordered by IC50: < 0.01 µM for the first, < 0.01 µM for the second.

C[C@@H](Cn1cnnn1)Oc1cccc(-c2ccn3ncc(-c4cccc(C(=O)NCc5ccccc5)c4)c3n2)c1 [compound 91] and C[C@@H](Cn1cnnn1)Oc1cccc(-c2ccn3ncc(-c4cccc(C(=O)NCC(C)(C)C)c4)c3n2)c1 [compound 72] cannot be ordered by IC50: < 0.01 µM for the first, < 0.01 µM for the second.

Compared with COc1ccnc(-c2cnc3ccc(-c4ccc(F)c(O[C@@H](CO)Cn5cnnn5)c4)nn23)c1C#N [Example 477, 2-[6-(4-fluoro-3-{[(2R)-1-hydroxy-3-(1H-tetrazol-1-yl)propan-2-yl]oxy}phenyl)imidazo[1,2-b]pyridazin-3-yl]-4-methoxypyridine-3-carbonitrile], COCCCNC(=O)Cn1cc(-c2cnc3ccc(-c4ccc(F)c(O[C@@H](C)Cn5cnnn5)c4)nn23)c(C#N)n1 [compound 126] is higher in IC50: < 0.01 µM for the first, > 0.1 µM for the second. The first is the more potent here.

COc1cc(F)cc(-c2cnc3ccc(-c4cccc(N[C@@H](C)Cn5cnnn5)n4)nn23)c1C#N [compound 480] and COC(=O)c1ccnc(-n2cnc3ccc(-c4ccc(F)c(O[C@@H](C)Cn5cnnn5)c4)nc32)c1 [compound 14] cannot be ordered by IC50: < 0.01 µM for the first, < 0.01 µM for the second.

COC1CCN(C(=O)c2cccc(-c3cnn4ccc(-c5cccc(O[C@@H](C)Cn6cnnn6)c5)nc34)c2)CC1 [compound 101] and C[C@@H](Cn1cnnn1)Oc1cccc(-c2ccn3ncc(-c4cccc(C(=O)N5CCOCC5)c4)c3n2)c1 [compound 71] fall in the same range of IC50: 0.01 to 0.1 µM for the first, 0.01 to 0.1 µM for the second.

C[C@@H](Cn1cnnn1)Oc1cccc(-c2ccn3ncc(-c4cccc(C(=O)NC5CCN(C)C(=O)C5)c4)c3n2)c1 (stereo partly shown) [compound 112] and C[C@@H](Cn1cnnn1)Oc1cccc(-c2ccn3ncc(-c4cccc(C(=O)NCCN5CCCC5=O)c4)c3n2)c1 [compound 113] cannot be ordered by IC50: < 0.01 µM for the first, < 0.01 µM for the second.

Same assay, conditions: in vitro CaMKII inhibitory activity (binding assay), human CaMKIIδ; read-out: Act

C[C@@H](Cn1cnnn1)Oc1cccc(-c2ccc3ncc(-c4nccc(OCC5COC5)c4C#N)n3n2)c1 [compound 352] and CCc1ccnc(-c2cnc3ccc(-c4cccc(O[C@@H](C)Cn5cnnn5)c4)nn23)c1C#N [compound 380] cannot be ordered by IC50: < 0.01 µM for the first, < 0.01 µM for the second.

COc1cnc(-c2cnc3ccc(-c4cccc(O[C@@H](C)Cn5cnnn5)c4)nn23)c(C#N)c1 [compound 281] and C[C@@H](Cn1cnnn1)Oc1cccc(-c2ccc3ncc(-c4nc(C(F)F)ccc4C#N)n3n2)c1 [compound 388] cannot be ordered by IC50: < 0.01 µM for the first, < 0.01 µM for the second.

COc1cccc(-c2cnc3ccc(-c4cncc(O[C@@H](C)Cn5cnnn5)n4)nn23)c1C#N [compound 428, 2-methoxy-6-[6-(6-{[(2S)-1-(1H-tetrazol-1-yl)propan-2-yl]oxy}pyrazin-2-yl)imidazo[1,2-b]pyridazin-3-yl]benzonitrile] and COc1cc(F)c(C#N)c(-c2cnc3ccc(-c4cccc(O[C@@H](C)Cn5cnnn5)n4)nn23)c1 [compound 408] cannot be ordered by IC50: < 0.01 µM for the first, < 0.01 µM for the second.

Compared with C[C@@H](Cn1cnnn1)Oc1cccc(-c2ccc3ncc(-c4[nH]ccc(=O)c4C#N)n3n2)c1 [compound 301, 4-oxo-2-[6-(3-{[(2S)-1-(1H-tetrazol-1-yl)propan-2-yl]oxy}phenyl)imidazo[1,2-b]pyridazin-3-yl]-1,4-dihydropyridine-3-carbonitrile], C[C@@H](Cn1cnnn1)Oc1cccc(-c2ccc3ncc(-c4ccnc(Cl)c4C#N)n3n2)c1 [compound 260] is lower in IC50: 0.01 to 0.1 µM for the first, < 0.01 µM for the second. The second is the more potent here.

C[C@@H](Cn1cnnn1)Oc1cc(-c2ccc3ncn(-c4cc(F)ccc4C#N)c3n2)ncn1 [Example 305, 4-fluoro-2-[5-(6-{[(2S)-1-(1H-tetrazol-1-yl)propan-2-yl]oxy}pyrimidin-4-yl)-3H-imidazo[4,5-b]pyridin-3-yl]benzonitrile] and C[C@@H](Cn1cnnn1)Oc1cc(-c2ccc3ncn(-c4cc(F)ccc4C#N)c3n2)cnn1 [Example 347, 4-fluoro-2-[5-(6-{[(2S)-1-(1H-tetrazol-1-yl)propan-2-yl]oxy}pyridazin-4-yl)-3H-imidazo[4,5-b]pyridin-3-yl]benzonitrile] fall in the same range of IC50: 0.01 to 0.1 µM for the first, 0.01 to 0.1 µM for the second.

C[C@@H](Cn1cnnn1)Oc1cccc(-c2ccc3ncc(-c4cc(F)cn(C)c4=O)n3n2)c1 [compound 331] and C[C@@H](Cn1cnnn1)Oc1cc(F)cc(-c2ccc3ncc(-c4cccn(C)c4=O)n3n2)c1 [compound 357] cannot be ordered by IC50: < 0.01 µM for the first, < 0.01 µM for the second.

COc1ccnc(-c2cnn3ccc(-c4ccc(F)c(O[C@@H](C)Cn5cnnn5)c4)nc23)c1C#N [compound 437] and COc1ncnc(-c2cnc3ccc(-c4ccc(F)c(O[C@@H](C)Cn5cnnn5)c4)nn23)c1C#N [compound 402] cannot be ordered by IC50: < 0.01 µM for the first, < 0.01 µM for the second.

First: CCOc1ncnc(-c2cnc3ccc(-c4cccc(O[C@@H](C)Cn5cnnn5)c4)nn23)c1C#N [compound 365]
Second: C[C@@H](Cn1cnnn1)Oc1cccc(-c2ccc3ncc(-c4nc(C(F)(F)F)ccc4C#N)n3n2)c1 [compound 349]
The IC50 of the first is lower: < 0.01 µM for the first, 0.01 to 0.1 µM for the second.

First: C[C@@H](Cn1cnnn1)Oc1cccc(-c2ccc3ncn(-c4cc(F)ccc4C#N)c3n2)c1 [Example 291, 4-fluoro-2-[5-(3-{[(2S)-1-(1H-tetrazol-1-yl)propan-2-yl]oxy}phenyl)-3H-imidazo[4,5-b]pyridin-3-yl]benzonitrile]
Second: COc1cc(OC)c(C#N)c(-n2cnc3ccc(-c4cccc(O[C@@H](C)Cn5cnnn5)n4)nc32)c1 [compound 440]
The IC50 of the first is lower: < 0.01 µM for the first, 0.01 to 0.1 µM for the second.

C[C@@H](Cn1cnnn1)Oc1cccc(-c2ccc3ncc(-c4cccc(OC(F)F)c4C#N)n3n2)c1 [Example 412, 2-(difluoromethoxy)-6-[6-(3-{[(2S)-1-(1H-tetrazol-1-yl)propan-2-yl]oxy}phenyl)imidazo[1,2-b]pyridazin-3-yl]benzonitrile] and C[C@@H](Cn1cnnn1)Oc1cc(-c2ccc3ncc(-c4cccnc4C#N)n3n2)ccc1F [compound 248] cannot be ordered by IC50: < 0.01 µM for the first, < 0.01 µM for the second.

First: C[C@@H](Cn1cnnn1)Oc1cccc(-c2ccc3ncc(-c4c(F)cccc4C#N)n3n2)n1 [compound 461]
Second: C[C@@H](Cn1cnnn1)Oc1cccc(-c2ccc3ncc(-c4cc(=O)n(C)cc4C#N)n3n2)n1 [compound 465]
The IC50 of the first is higher: 0.01 to 0.1 µM for the first, < 0.01 µM for the second.
